The record followed here is patent publication US8338428B2, “Methods for administering aripiprazole” (Alkermes, Inc., priority 2003, dated 2012).

The structures appear in SMILES notation. Entries after “also recorded” stand apart in the source; their conditions may differ.

The data set can be described thus: Pharmacokinetic evaluation of aripiprazole in rats following single subcutaneous doses of aripiprazole formulations. The data set is classed as in vivo, Sprague-Dawley rats. Particulars: rat, single SC injection of 10, 20 or 30 mg bulk drug in 0.75 mL diluent (3% CMC, 0.1% Tween 20, 0.9% NaCl); plasma 2 h to 28 d; versus microspheres with 30% or 50% load.

Procedure: Experimental: Pharmacokinetic Evaluation of Aripiprazole in Rats Following Administration of Single Subcutaneous Doses of Aripiprazole Formulations. Species and Strain: Sprague-Dawley rats. Male; 450 +/−50 grams. Study Groups: 5 Groups, 15 subjects • Group A: three rats injected once SC with 10 mg of Aripiprazole. • Group B: three rats injected once SC with 20 mg of Aripiprazole. • Group C: three rats injected once SC with 30 mg of Aripiprazole. • Group D: three rats injected once SC with ˜67 mg of microparticles. • Group E: three rats injected once SC with ˜40 mg of microparticles. […] Route of Injection: Subcutaneous (SC) injection into the interscapular region. Injection Vehicle: Aqueous diluent containing 3% CMC (low viscosity), 0.1% Tween 20, in 0.9% NaCl and water. Dose Volumes: Suspensions were formulated as follows: • Group A: 10 mg powder in 0.75 mL Diluent • Group B: 20 mg powder in 0.75 mL Diluent • Group C: 30 mg powder in 0.75 mL Diluent • Group D: ˜67 mg microparticles in 0.75 mL Diluent • Group E: 40 mg microparticles in 0.75 mL Diluent Blood Collection: Blood samples were collected via a lateral tail vein after anesthesia with Halothane. A syringe without an anticoagulant was used for the blood collection, then the whole blood was transferred to tubes containing K2 EDTA and mixing beads (MICROTAINER®; MFG# BD365974). […]

Regarding `O=C1CCc2ccc(OCCCCN3CCN(c4cccc(Cl)c4Cl)CC3)cc2N1` [aripiprazole, Aripiprazole], the “plasma release profile of SC bolus injection compared with aripiprazole-containing PLGA microspheres” value was “substantially the same; also recorded: extended release profile similar to that obtained by the injection of a poly lactide-co-glycolide microsphere formulation”.
